Measurements published in the supplement of paper PMC5412046.
Where a name gives a salt, the structure may show the parent alone.

Columns and labels:
[1] = test system: SB.mhdgc-1; assay: viability at highest tested concentration (MAXR) relative to DMSO; higher = less cytotoxic; conditions: SB.mhdgc-1 (hereditary c.1380delA CDH1 gastric cancer)
Summary of the method: (§1)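 Reported here is DMSO-normalised viability, either at the highest concentration or as a trapezoidal area under the curve. Hereditary or sporadic patient-derived gastric cancer cells received compound by pintool at 11 threefold-diluted concentrations and were read with CellTiter-Glo after 48 h.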

[2] = test system: SB.msgc-1; assay: as above; conditions: SB.msgc-1 (sporadic gastric cancer)
Summary of the method: as §1

[3] = test system: SB.mhdgc-1; assay: area under the dose-response curve of % viability (trapezoidal, 11 doses) (% viability x log10 concentration); higher = less cytotoxic; conditions: SB.mhdgc-1 (hereditary c.1380delA CDH1 gastric cancer)
Summary of the method: as §1

[4] = test system: SB.msgc-1; assay: as above; conditions: SB.msgc-1 (sporadic gastric cancer)
Summary of the method: as §1

SMILES	viability [1]	viability [2]	area under the dose-response curve [3]	area under the dose-response curve [4]
CC[C@H](CO)Nc1nc(NCc2ccccc2)c2ncn(C(C)C)c2n1 [Seliciclib] (top concentration 46.0829 µM)	42.5%	33.7%	413	505
Cn1cnc2c(F)c(Nc3ccc(Br)cc3Cl)c(C(=O)NOCCO)cc21 [Selumetinib] (top concentration 46.0829 µM)	43.8%	24.2%	422	455
CC(C)[C@H](O)C(=O)N[C@@H](C)C(=O)N[C@@H]1C(=O)N(C)CCc2ccccc21 [Semagacestat] (top concentration 46.0829 µM)	79.5%	90.2%	545	518
C=C1/C(=C/C=C2\CCCC3(C)[C@@H]([C@H](C)/C=C/C=C/C(O)(CC)CC)CC[C@@H]23)C[C@@H](O)C[C@@H]1O (stereo partly specified) [Seocalcitol] (top concentration 46.0829 µM)	31.7%	4.45%	460	429
COCCn1c2c([n+](Cc3cnccn3)c1C)C(=O)c1ccccc1C2=O [Sepantronium bromide] (top concentration 46.0829 µM)	2.42%	0.172%	236	183
CC1=C(C)C(=O)C(C(CCCCCC(=O)O)c2ccccc2)=C(C)C1=O (stereo unspecified) [Seratrodast] (top concentration 46.0829 µM)	95.2%	98.4%	427	451
c1ccc2c(CCNc3ccc(Nc4ccncc4)cc3)c[nH]c2c1 [Serdemetan] (top concentration 46.0829 µM)	7.88%	45.2%	397	486
c1cc2c(cc1[C@H]1OC[C@H]3[C@@H]1CO[C@@H]3c1ccc3c(c1)OCO3)OCO2 [Sesamin] (top concentration 46.0829 µM)	57.4%	80.3%	495	499
CC(C)=CC[C@@H](O)C/1=C/C(=O)C2=C(O)C=CC(=C2C1=O)O [Shikonin] (top concentration 46.0829 µM)	2.54%	1.71%	321	417
CC(C)CC(N(C)C)C1(c2ccc(Cl)cc2)CCC1 (stereo unspecified) [Sibutramine hydrochloride] (top concentration 46.0829 µM)	25.6%	36.2%	518	478
CCCC1=N[N](C)C2=C1\N=C(/NC2=O)C3=CC(=CC=C3OCC)[S+]([O-])(=O)N4CCN(C)CC4 [Sildenafil citrate] (top concentration 46.0829 µM)	15.2%	29.5%	463	369
O=C(O)c1ccc2c(c1)nc(Nc1cccc(Cl)c1)c1ccncc12 [Silmitasertib] (top concentration 46.0829 µM)	32.9%	28.5%	565	491
C[C@@H](Cc1cc2c(c(C(N)=O)c1)N(CCCO)CC2)NCCOc1ccccc1OCC(F)(F)F [Silodosin] (top concentration 46.0829 µM)	119%	84.9%	516	547
Nc1ccc([S+](=O)([O-])Nc2ncccn2)cc1 [Silver sulfadiazine] (top concentration 46.0829 µM)	54.2%	80.3%	485	511
COc1cc([C@H]2Oc3cc([C@H]4Oc5cc(O)cc(O)c5C(=O)[C@@H]4O)ccc3O[C@@H]2CO)ccc1O [Silybin] (top concentration 46.0829 µM)	65.9%	31.3%	511	511
COC/1=C/[C@@H]2[C@@H]3CC4=C(C(=C(OC)C=C4)O)[C@]2(CCN3C)CC1=O [Sinomenine] (top concentration 46.0829 µM)	24.9%	37.2%	417	380
CN1CCN(c2ncc(-c3cc(Cl)cc(Cl)c3Cl)c(N)n2)CC1 [Sipatrigine] (top concentration 46.0829 µM)	4.71%	33.3%	461	522

SMILES	viability [1]	viability [2]	area under the dose-response curve [3]	area under the dose-response curve [4]
CO[C@H]1C[C@@H]2CC[C@@H](C)[C@@](O)(O2)C(=O)C(=O)N2CCCC[C@H]2C(=O)O[C@H]([C@@H](C)C[C@@H]2CC[C@@H](O)[C@H](OC)C2)CC(=O)[C@H](C)/C=C(\C)[C@@H](O)[C@@H](OC)C(=O)[C@H](C)C[C@H](C)/C=C/C=C/C=C/1C [Sirolimus] (top concentration 46.0829 µM)	67.2%	76.1%	370	470
N[C@H]2CN(CC12CC1)c3c(F)cc4c(c3Cl)[N@@](C=C(C4=O)C(=O)O)C5C[C@H]5F (stereo partly specified) [Sitafloxacin hydrate] (top concentration 46.0829 µM)	69.5%	85.1%	444	468
N[C@@H](CC(=O)N1CCn2c(nnc2C(F)(F)F)C1)Cc1cc(F)c(F)cc1F [Sitagliptin] (top concentration 46.0829 µM)	92.7%	99.3%	587	527
CC(C)(C)C(=O)Oc1ccc([S+](=O)([O-])Nc2ccccc2C(=O)NCC(=O)O)cc1 [Sivelestat] (top concentration 46.0829 µM)	134%	110%	563	505
O=C([O-])C(O)Cc1ccc(O)c(O)c1 (stereo unspecified) [Sodium Danshensu] (top concentration 46.0829 µM)	96.8%	81.5%	573	509
Cc1onc(-c2ccccc2Cl)c1C(=O)N[C@@H]1C(=O)N2[C@@H]1SC(C)(C)[C@@H]2C(=O)[O-] [Sodium cloxacillin] (top concentration 46.0829 µM)	97.4%	121%	513	606
OC(COC1=C2C(=O)\C=C(/OC2=CC=C1)C([O-])=O)COC3=C4C(=O)\C=C(/OC4=CC=C3)C([O-])=O [Sodium cromoglycate] (top concentration 46.0829 µM)	73.9%	108%	415	468
CC(C)OC(=O)[C@H](C)N[P@](=O)(OC[C@H]1O[C@@H](N2\C=C/C(=O)NC2=O)[C@](C)(F)[C@@H]1O)OC3=CC=CC=C3 [Sofosbuvir] (top concentration 46.0829 µM)	58.6%	103%	431	509
CC(C)=CCC/C(C)=C/CC/C(C)=C/CC/C(C)=C/CC/C(C)=C/CC/C(C)=C/CC/C(C)=C/CC/C(C)=C/CC/C(C)=C/CO [Solanesol] (top concentration 46.0829 µM)	133%	119%	611	564
O=C1\C=C/C[C@@H]2[C@H]3CCCN4CCC[C@@H](CN12)[C@@H]34 [Sophocarpine] (top concentration 46.0829 µM)	87%	31.1%	598	395
CNC(=O)c1cc(Oc2ccc(NC(=O)Nc3ccc(Cl)c(C(F)(F)F)c3)cc2)ccn1 [Sorafenib] (top concentration 46.0829 µM)	9.42%	26.6%	494	444
CC(C)NCC(O)c1ccc(NS(C)(=O)=O)cc1 (stereo unspecified) [Sotalol] (top concentration 46.0829 µM)	35.2%	40.9%	485	512
C[C@H]1CN(C[C@@H](C)N1)C2=C(F)C3=C(C(=C2F)N)C(=O)\C(=C/N3C4CC4)C(O)=O [Sparfloxacin] (top concentration 23.0415 µM)	119%	97.3%	556	546
Fc1ccc(CNc2ncnc3ccc(F)cc23)cc1 [Spautin-1] (top concentration 46.0829 µM)	67.9%	61.4%	505	470
CN[C@@H]1[C@H](O)[C@H](NC)[C@H]2O[C@@]3(O)C(=O)C[C@@H](C)O[C@H]3O[C@@H]2[C@H]1O [Spectinomycin hydrochloride] (top concentration 46.0829 µM)	1.14%	6.98%	315	328
NCCCCNCCCN [Spermidine] (top concentration 46.0829 µM)	47.6%	12.4%	493	538
C[C@]12Cc3cn[nH]c3C[C@@H]1CC[C@@H]1[C@@H]2CC[C@@]2(C)[C@H]1CC[C@]2(C)O [Stanozolol] (top concentration 46.0829 µM)	44.9%	55.5%	444	510
